Measured values taken from the supplement of paper PMC10307832.

What was measured:
Experiment in all cases: relative viability (nuclei count vs DMSO), 5 days (fraction); higher = more cells survive
XMD13-2 = compound: C1CC1C(=O)NC2=NNC3=C2C=CC(=C3)C4=CC(=CC=C4)C(=O)NC5CC5 [XMD13-2]
Procedure, shortened: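 Viability is treated-well nuclei as a fraction of vehicle-well nuclei, reported as the median across plates. Before counting, lung cancer cell lines were kept overnight at 37 °C in 1536-well plates, pinned with five √10-spaced library-drug doses on vehicle-anchored plates, and left 5 days without medium change, then fixed, permeabilised and Hoechst-stained in one step, imaged at 4× and counted by MetaXpress. A plate passed only if control CV was below 25% and at least one doubling occurred.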

ALW-II-49-7 + Pictilisib = compound: Cc1ccc(C(=O)Nc2cccc(C(F)(F)F)c2)cc1Nc1cncc(C(N)=O)c1 [ALW-II-49-7] + CS(=O)(=O)N1CCN(Cc2cc3nc(-c4cccc5[nH]ncc45)nc(N4CCOCC4)c3s2)CC1 [Pictilisib] (partner 1 µM)
Procedure, shortened: (§1)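 Each reported value is a median over duplicate plates. It expresses relative viability: treated-well nuclei count divided by vehicle-well nuclei count. Lung cancer cell lines in 1536-well plates were dosed by pin tool a day after seeding, alone with one drug or with a fixed anchor-drug dose plus five library-drug doses (not always all listed) in √10 steps, and nuclei were counted after 5 days.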

ALW-II-49-7 + Linsitinib = compound: Cc1ccc(C(=O)Nc2cccc(C(F)(F)F)c2)cc1Nc1cncc(C(N)=O)c1 [ALW-II-49-7] + C[C@]1(O)C[C@@H](c2nc(-c3ccc4ccc(-c5ccccc5)nc4c3)c3c(N)nccn32)C1 [Linsitinib] (partner 1 µM)
Procedure, shortened: as §1

Dasatinib + AZD7762 = compound: Cc1nc(Nc2ncc(C(=O)Nc3c(C)cccc3Cl)s2)cc(N2CCN(CCO)CC2)n1 [Dasatinib] + NC(=O)Nc1cc(-c2cccc(F)c2)sc1C(=O)N[C@H]1CCCNC1 [AZD7762] (partner 0.2 µM)
Procedure, shortened: as §1

Cell Line | relative viability (XMD13-2; 0.05 µM) | relative viability (XMD13-2; 0.1581 µM) | relative viability (XMD13-2; 0.5 µM) | relative viability (XMD13-2; 1.581 µM) | relative viability (XMD13-2; 5 µM) | relative viability (ALW-II-49-7 + Pictilisib; first compound 0.08 µM) | relative viability (ALW-II-49-7 + Pictilisib; first compound 0.253 µM) | relative viability (ALW-II-49-7 + Pictilisib; first compound 0.8 µM) | relative viability (ALW-II-49-7 + Pictilisib; first compound 2.53 µM) | relative viability (ALW-II-49-7 + Pictilisib; first compound 8 µM) | relative viability (ALW-II-49-7 + Linsitinib; first compound 0.08 µM) | relative viability (ALW-II-49-7 + Linsitinib; first compound 0.253 µM) | relative viability (ALW-II-49-7 + Linsitinib; first compound 0.8 µM) | relative viability (ALW-II-49-7 + Linsitinib; first compound 2.53 µM) | relative viability (ALW-II-49-7 + Linsitinib; first compound 8 µM) | relative viability (Dasatinib + AZD7762; first compound 0.005 µM) | relative viability (Dasatinib + AZD7762; first compound 0.01581 µM) | relative viability (Dasatinib + AZD7762; first compound 0.05 µM) | relative viability (Dasatinib + AZD7762; first compound 0.1581 µM) | relative viability (Dasatinib + AZD7762; first compound 0.5 µM)
NCI-H1623 | 0.948 | 1.03 | 0.879 | 0.89 | 0.965 |  |  |  |  |  |  |  |  |  |  |  |  |  |  | 
HCC-827 | 1.06 | 1.01 | 1.02 | 0.973 | 0.944 | 0.988 | 1.03 | 0.887 | 0.815 | 1.03 | 0.94 | 1.06 | 0.962 | 0.981 | 1.08 | 0.215 | 0.176 | 0.127 | 0.114 | 0.146
NCI-H322M | 1.05 | 0.918 | 0.893 | 0.911 | 1.08 | 0.449 | 0.49 | 0.479 | 0.499 | 0.556 | 0.846 | 0.902 | 0.909 | 0.836 | 0.673 | 0.597 | 0.526 | 0.468 | 0.265 | 0.381
ChaGo-K-1 | 1.02 | 0.99 | 1.04 | 1.03 | 0.93 | 0.661 | 1.04 | 0.818 | 1.19 | 0.442 |  |  |  |  |  | 0.854 | 0.77 | 0.822 | 0.705 | 0.549
BEN | 1.07 | 1.01 | 0.992 | 0.874 | 0.933 | 0.56 | 0.592 | 0.608 |  | 0.567 | 0.69 | 0.865 | 0.99 |  | 0.936 | 0.747 | 0.558 | 0.483 | 0.402 | 0.43
NCI-H2347 | 1.05 | 1.02 | 1.06 | 1.08 | 0.935 | 0.519 | 0.505 | 0.505 | 0.633 | 0.493 | 1 | 0.974 | 1.08 | 0.868 | 0.737 | 0.614 | 0.538 | 0.549 | 0.296 | 0.282
LOU-NH91 | 1.12 | 0.979 | 0.965 | 0.85 | 1.15 | 0.482 | 0.599 | 0.514 | 0.428 | 0.533 | 0.928 | 0.97 | 0.93 | 0.528 | 0.977 | 0.747 | 0.638 | 0.623 | 0.469 | 0.384
NCI-H2228 | 1.16 | 0.99 | 1.27 | 1.06 | 1.17 | 0.477 | 0.464 | 0.428 | 0.34 | 0.254 | 1.17 | 0.677 | 0.8 | 0.644 | 0.611 |  |  |  |  | 
NCI-H2342 | 1.1 | 0.97 | 1.03 | 0.804 | 0.972 |  |  |  |  |  |  |  |  |  |  | 0.469 | 0.384 | 0.383 | 0.341 | 0.315
HCC-366 | 1.08 | 0.918 | 0.991 | 0.979 | 1.03 | 0.13 | 0.142 | 0.148 | 0.0944 | 0.217 | 0.68 | 0.636 | 0.698 | 0.682 | 0.791 | 0.234 | 0.248 | 0.143 | 0.159 | 0.0931
NCI-H2405 | 1.09 | 0.986 | 1.05 | 0.883 | 1.08 | 0.409 | 0.526 | 0.368 | 0.345 | 0.366 | 0.892 | 1.01 | 0.958 | 0.376 | 0.9 | 0.656 | 0.514 | 0.368 | 0.212 | 0.228
Calu-6 | 1.05 | 1.08 | 1.07 | 0.99 | 1.04 | 1.02 | 0.99 | 0.907 | 0.735 | 0.72 | 0.987 | 0.847 | 0.903 | 0.881 | 0.852 |  |  |  |  | 
201T | 1.02 | 1.03 | 1.02 | 1 | 1.02 | 0.666 | 0.684 | 0.771 | 0.714 | 0.628 | 1.03 | 1.06 | 1.02 | 0.983 | 1 | 0.848 | 0.635 | 0.493 | 0.455 | 0.302
CAL-12T | 1.05 | 0.961 | 1.06 | 0.887 | 1.02 | 0.343 |  |  | 0.715 | 0.395 | 1.01 | 0.965 | 0.736 | 0.796 | 0.701 | 0.637 | 0.584 | 0.681 | 0.613 | 0.538
HCC-44 | 0.988 | 0.996 | 1.05 | 0.978 | 1.03 | 0.513 | 0.693 | 0.638 | 0.535 | 0.646 | 0.6 | 0.658 | 0.686 | 0.619 | 0.839 | 1.07 | 0.992 | 1.19 | 1.33 | 1.1
NCI-H358 | 1.18 | 0.918 | 1.06 | 0.928 | 0.704 | 0.361 | 0.401 | 0.363 | 0.405 | 0.456 | 0.801 | 0.661 | 0.816 | 0.725 | 0.742 | 0.538 | 0.455 | 0.364 | 0.241 | 0.244
SW 900 | 0.96 | 0.765 | 0.924 | 0.741 | 1.03 |  |  |  |  |  |  |  |  |  |  | 0.592 | 0.534 | 0.371 | 0.36 | 0.147
NCI-H2087 | 1.3 | 1.19 | 1.17 | 1.01 | 0.962 | 1.12 | 1.14 | 0.722 | 0.959 | 0.933 | 1.14 | 0.962 | 0.871 | 0.896 | 0.919 | 1.34 | 1.19 | 1.49 | 0.857 | 0.556
